# According to patent US20210386752A1, “Uses of Electron Transport Chain Complex I or Complex II Inhibitors in Treating Cancer, Combination Therapies, and Diagnostic Methods Related Thereto” (Emory University, priority 2020, published 2021):
# Like-named read-outs stand apart in the source and are kept apart here.
# Key:
# [1] = system: venetoclax-resistant MM lines; assay: Venetoclax sensitization of resistant MM lines by ETC inhibitor cotreatment, viability by AnnexinV/DAPI staining; assay type: cell-based
# Method: Cell viability assessed by AnnexinV/DAPI staining.
# Given the unique role of Complex II in directly connecting the TCA cycle to the ETC, the impact of selectively inhibiting either the SDH or SQR activities of Complex II on venetoclax sensitivity was tested. The venetoclax sensitization effects of TTFA (SQR inhibitor) or 3NPA (SDH inhibitor) were tested on eight venetoclax-resistant MM lines (FIG. 3A-3H). 3NPA is a structural analog of succinate, which binds irreversibly with SDH inhibiting FAD reduction and fumarate production while TTFA is a direct Qp site inhibitor. […] The efficacy of the TTFA-venetoclax cotreatment strategy was also tested in a colony-forming unit assay. MM lines (L363 and KMS11) were cultured in an agar matrix with single agents or the combination.
# To further inquire whether Complex I inhibition could also sensitize MM cells to venetoclax, a Complex I inhibitor was tested ([…]).
# [2] = system: L363, KMS11 and KMS21BM; assay: ATP levels after ETC complex III, IV, V inhibition; assay type: cell-based; conditions: after 24 h, at the doses used
# Method: Experiments were performed to determine whether inhibition of Complex III, IV and V could also sensitize resistant MINI to venetoclax.
# [3] = system: MM cell lines; assay: Cell death of MM cell lines with single-agent venetoclax, AnnexinV/DAPI flow cytometric staining; assay type: cell-based; conditions: 0.5 μM venetoclax, 24 h, panel of MM lines
# Method: Percent live normalized to vehicle control, with cell lines grouped by sensitivity. n=3 independent experiments.
# Differential venetoclax sensitivity was assessed in a panel of MM lines. […] The pattern of increased sensitivity of these cell lines was selective for venetoclax and not detected with other standard myeloma therapeutics i.e. bortezomib and melphalan or sensitivity to the MCL-1 inhibitor […] as reported for the KMS12BM, KMS12PE, KMS11, MM.1 S, JJN3, RPMI-8226 and L363 lines.
# [4] = system: MM patients; conditions: cited from earlier work
# [5] = system: bone marrow plasma cells and memory B cells; conditions: murine immune system; cited from earlier work
# [6] = system: AML; conditions: targeting Complex II; cited from earlier work
# [7] = system: ATF4, NOXA; assay: Immunoblot of whole cell lysates for ATF4 and NOXA; assay type: cell-based; conditions: 25 nM IACS-010759, 24 h
# [8] = system: CD38+ CD45− gated MM cells from myeloma patient bone marrow aspirates; assay: Ex vivo venetoclax sensitivity of myeloma patient samples, Annexin V staining; assay type: cell-based, human; conditions: nine patient samples, IACS-010759
# Method: CD38-PE and CD45-APC-Cy7 were used to gate myeloma cells. n=50 biological independent samples.
# Bone marrow aspirate samples from 50 MM patients were treated with three doses of venetoclax (0.01, 0.1 and 0.5 μM) or TTFA (100 μM), or the combination for 24 h and cell death was assessed by AnnexinV staining. […] A venetoclax ICso <0.1 μM is characterized as a sensitive sample.
# Bone marrow aspirates or peripheral blood samples from consenting myeloma patients were diluted to 25 mL with PBS and over laid on lymphocyte separation media. Following centrifugation, the collected buffy coat was washed with PBS and resuspended in culture medium. Cells subject to various treatments were stained with anti-CD38-phyocerythrin and anti-CD45-allophycocyanin-Cy7 to identify MM cells. CD138+ cells were purified using MACS CD138+ human microbeads. IC50S of venetoclax alone or in combination with TTFA/IACS-010759 in myeloma samples were calculated using nonlinear regression (curve-fit) analysis under agonist vs. normalized response with variable slope.
# [9] = system: non-MM cells contained within the aspirate
# Method: Bone marrow aspirate samples from 50 MM patients were treated with three doses of venetoclax (0.01, 0.1 and 0.5 μM) or TTFA (100 μM), or the combination for 24 h and cell death was assessed by AnnexinV staining.
# The efficacy of IACS-010759 in sensitizing was tested in […] patient samples to venetoclax.
# [10] = system: MM; assay: IACS-010759 in combination with anti-myeloma agents, cell death in MM cells; assay type: cell-based
# [11] = system: MCL-1; assay: MCL-1 expression in MM cells; assay type: cell-based; conditions: KMS12PE
# [12] = L363, KMS11, KMS21BM, doses reducing ATP by about 50% after 24 h
compound,measurement,setting,value
antimycin,sensitization to venetoclax,[1]; [12],"sensitized L363, KMS11 and KMS21BM to venetoclax"
same,reduction of ATP levels,[2],about 50%
C/C=C(\C)[C@H](O)[C@H](C)/C=C(C)/C=C/C/C(C)=C/Cc1nc(OC)c(OC)c(O)c1C [piericidin],sensitization to venetoclax,"[1]; resistant MM cell lines, Complex I inhibitor",also sensitized resistant MM cell lines to venetoclax
"CC1(C)CCC(CN2CCN(c3ccc(C(=O)NS(=O)(=O)c4ccc(NCC5CCOCC5)c([N+](=O)[O-])c4)c(Oc4cnc5[nH]ccc5c4)c3)CC2)=C(c2ccc(Cl)cc2)C1 [venetoclax, 2-((1H-pyrrolo[2,3-b]pyridin-5-yl)oxy)-4-(4-((4′-chloro-5,5-dimethyl-3,4,5,6-tetrahydro-[1,1′-biphenyl]-2-yl)methyl)piperazin-1-yl)-N-((3-nitro-4-(((tetrahydro-2H-pyran-4-yl)methyl)amino)phenyl)sulfonyl)benzamide]",cytotoxicity (cell death),[3],significant cytotoxicity primarily in t(11;14) lines
same,fraction of MM patients responding to single agent,[4]; all MM patients,approximately 7%
same,fraction of patients venetoclax sensitive,[4]; non-t(11;14) patients,< 6%
same,fraction of patients venetoclax sensitive,[4]; t(11;14) patients,~40%
CN(C)CC[C@H](CSc1ccccc1)Nc1ccc(S(=O)(=O)NC(=O)c2ccc(N3CCN(Cc4ccccc4-c4ccc(Cl)cc4)CC3)cc2)cc1[N+](=O)[O-] [ABT-737],effect on plasma cells and B cells,[5],"inhibits the establishment of newly arising bone marrow plasma cells and memory B cells with no effect on pre-existing plasma cells, or germinal center B cells"
CC[C@H]1/C=C/C=C/C[C@@H](C)[C@H](O)[C@@](C)(O)C(=O)[C@@H](C)[C@H](O)[C@@H](C)C(=O)[C@@H](C)[C@H](O)[C@@H](C)/C=C/C(=O)O[C@@H]2[C@H](C)[C@H](CC1)O[C@]1(CC[C@H](C)[C@H](C[C@@H](C)O)O1)[C@H]2C [oligomycin],sensitization to venetoclax,[1]; [12],"sensitized L363, KMS11 and KMS21BM to venetoclax"
same,reduction of ATP levels,[2],about 50%
[N-]=[N+]=[N-] [sodium azide],reduction of ATP levels,[2],about 50%
Nc1ncn([C@@H]2O[C@H](CO)[C@@H](O)[C@H]2O)c(=O)n1 [azacitidine],venetoclax sensitivity,[6],induced venetoclax sensitivity
O=C(O)CC[N+](=O)[O-] [3NPA],sensitivity to venetoclax on cotreatment,"[1]; eight venetoclax-resistant MM lines, 24 h",less effective compared to TTFA
"Cc1nc(-c2nc(-c3ccc(OC(F)(F)F)cc3)no2)nn1Cc1cccc(N2CCC(S(C)(=O)=O)CC2)c1 [IACS-010759, 5-(5-methyl-1-(3-(4-(methylsulfonyl)piperidin-1-yl)benzyl)-1H-1,2,4-triazol-3-yl)-3-(4-(trifluoromethoxy)phenyl)-1,2,4-oxadiazole]",IC50 of venetoclax on cotreatment,"[1]; 25 nM IACS-010759, tested cell lines",significantly reduced the IC50 of venetoclax
same,sensitization to 0.5 μM venetoclax,"[1]; KMS11, L363, KMS21BM, increasing doses of IACS-010759, 24 h",sensitized cells to 0.5 μM venetoclax
same,sensitization to venetoclax,"[1]; KMS21BM, TTFA at 100 μM",enough to sensitize KMS21BM to venetoclax
same,"protein expression of ATF4, NOXA",[7],induction of ATF4 and NOXA
same,samples with >50% reduction in the IC50 of venetoclax,[8],five of the samples
same,samples with increased venetoclax sensitivity,[8],Eight out of nine samples showed increased sensitivity
same,viability of non-MM cells,[9],minimal impact on the viability of non-MM cells
same,effect on carfilzomib (CFZ) response,[10]; 24 hr dose response,antagonizes MM to proteasome inhibitor carfilzomib
same,effect on bortezomib induced cell death,"[10]; L363, 24 hr treatment",antagonizes MM to proteasome inhibitor bortezomib induced cell death
same,effect on melphalan induced cell death,"[10]; L363, 24 hr treatment",sensitizes myeloma to melphalan induced cell death
same,effect on efficacy of dexamethasone + venetoclax,[10]; MM,increases efficacy of dexamethasone (Dex) +Ven
same,effect on sensitivity to dexamethasone,[10]; MM,increases sensitivity of MM to Dex
same,sensitization to venetoclax (ABT-199),"[10]; t(11;14) MM, KMS12PE, 24 hr Ven treatment",sensitizes t(11;14) MM to venetoclax
same,MCL-1 expression,[11],reduces MCL-1
